Laboratory results: US20140213454A1, “METHODS TO INDUCE DROUGHT TOLERANCE IN CROPS” (Valent BioSciences Corporation, priority 2013, published 2014)

Tests used:
corn [1] = assay: Replicated corn trial 2012, moderate drought (Example 1); format: in vivo
Description: A replicated corn silage study was conducted in 2012. Corn was planted on May 18, 2012, and treated with two rates of GA3 at either the V2 (June 2) or V5 (June 18) growth stage, each time at two rates of GA3. Grain yields were estimated from harvests of 20 feet of row and converted to bushels of grain per acre. There was 1.5 inches of rain in the two weeks before planting but no rain from May 10 until May 29, when there was 0.7 inch rain. During June there was 2.9 inches of rain spread over the month. There were only two rain events from July 1-25, each of less than 0.2 inches. On July 26th there was approximately 2 inches of rain. Rainfall in June, July and August was about one third below the 30-year average for the area and the corn was under moderate drought conditions. Crop moisture conditions in July were described as ‘excessively dry’ by the National Climate Data Center of NOAA.

corn [2] = assay: Replicated corn trial 2012, extreme and exceptional drought (Example 2); format: in vivo; details: for Grain Yield: extreme and exceptional drought, untreated 88.45
Description: In a replicated trial conducted in 2012, the corn crop experienced extreme and exceptional drought in July, as described by the National Climate Data Center. Corn was planted at the end of April and treated with GA3 at either the V2 or V5 growth stages. Thirty two days after application, the GA3-treated corn was approximately 10 inches taller than the untreated on average.

hybrid corn = assay: Field trial 2012, time course of GA3 applications, hybrid corn (Example 3); format: in vivo; details: 5.3 grams GA3/acre, extreme and exceptional drought, untreated 116
Description: In another field trial conducted in 2012 a time course of GA3 applications was performed. In this trial, hybrid corn was planted on April 24, 2012 at a density of 32,000 plants/acre. The plants were sprayed with GA3 at either the fifth leaf (V5) or tassel emergence (VT) on June 6 or July 7, respectively. This trial was subjected to extreme and exceptional drought in July during set and grain fill. As is shown in Table 3 below, the effect of the spray treatments of GA3 was dependent on the timing of the GA3 application.

perennial ryegrass = details: Jiang and Fry 1998; cited from earlier work
corn [3] = details: Robertson and Greenway 1973; cited from earlier work

C=C1C[C@]23C[C@@]1(O)CC[C@H]2[C@@]12C=C[C@H](O)[C@@](C)(C(=O)O1)[C@H]2[C@@H]3C(=O)O [GA3, gibberellic acid]
Grain Yield (corn [1]; 3.2 grams GA3/acre, application timing V2, untreated 124.0): 141.2 Bu/Acre
Grain Yield (corn [1]; 3.2 grams GA3/acre, application timing V5, untreated 124.0): 143.0 Bu/Acre
Grain Yield (corn [1]; 6.4 grams GA3/acre, application timing V2, untreated 124.0): 141.1 Bu/Acre
Grain Yield (corn [1]; 6.4 grams GA3/acre, application timing V5, untreated 124.0): 156.1 Bu/Acre
Grain Yield (corn [2]; 3.2 grams GA3/acre, application stage V2): 119.70 Bu/Acre
Grain Yield (corn [2]; 3.2 grams GA3/acre, application stage V5): 155.65 Bu/Acre
Grain Yield (corn [2]; 6.4 grams GA3/acre, application stage V2): 119.83 Bu/Acre
Grain Yield (corn [2]; 6.4 grams GA3/acre, application stage V5): 121.60 Bu/Acre
Plant height, taller than the untreated on average (corn [2]; thirty two days after application at V2 or V5): approximately 10 inches
Grain Yield (hybrid corn; application stage V5): 155 Bu/Acre
Grain Yield (hybrid corn; application stage VT (tassel emergence)): 131 Bu/Acre

CCOC(=O)C1CC(=O)C(=C(O)C2CC2)C(=O)C1 (stereo not shown) [Trinexapac-ethyl, trinexapac-ethyl]
Drought tolerance (perennial ryegrass): induce drought tolerance in perennial ryegrass

C[N+](C)(C)CCCl [chlormequat chloride]
Drought resistance (corn [3]): induce drought resistance in corn
